Measurements: ChEMBL document CHEMBL2417425, “Design and synthesis of positional isomers of 5 and 6-bromo-1-[(phenyl)sulfonyl]-2-[(4-nitrophenoxy)methyl]-1H-benzimidazoles as possible antimicrobial and antitubercular agents” (2013)
Converted amounts (≈) assume the structure as drawn.

Experiments:
Type in all cases: functional
Escherichia coli = test: Antibacterial activity against Escherichia coli assessed as growth inhibition by serial dilution method
Staphylococcus aureus [1] = test: Antibacterial activity against Staphylococcus aureus assessed as growth inhibition by serial dilution method
[2] = system: Mycolicibacterium fortuitum; test: Antimycobacterial activity against Mycobacterium fortuitum ATCC 19542 assessed as growth inhibition at 1 to 100 ug/mL by resazurin assay
Rhizopus = test: Antifungal activity against Rhizopus sp. assessed as growth inhibition by serial dilution method
Aspergillus flavus = test: Antifungal activity against Aspergillus flavus assessed as growth inhibition by serial dilution method
[3] = system: Mycolicibacterium smegmatis; test: Antimycobacterial activity against Mycobacterium smegmatis ATCC 19420 assessed as growth inhibition at 1 to 100 ug/mL by resazurin assay
Klebsiella pneumoniae [4] = test: Antibacterial activity against Klebsiella pneumoniae assessed as growth inhibition by serial dilution method
Candida albicans = test: Antifungal activity against Candida albicans assessed as growth inhibition by serial dilution method
[5] = system: Mycobacterium tuberculosis; test: Antimycobacterial activity against Mycobacterium tuberculosis H37Rv assessed as growth inhibition at 1 to 100 ug/mL by resazurin assay; settings: for MIC: Mycobacterium tuberculosis, H37Rv
[6] = system: Mycobacterium tuberculosis; test: Antimycobacterial activity against Mycobacterium tuberculosis H37Rv assessed as growth inhibition at 0.3125 to 5 ug/mL by resazurin assay
[7] = system: Mycolicibacterium smegmatis; test: Antimycobacterial activity against Mycobacterium smegmatis ATCC 19420 assessed as growth inhibition at 0.3125 to 5 ug/mL by resazurin assay
[8] = system: Mycolicibacterium fortuitum; test: Antimycobacterial activity against Mycobacterium fortuitum ATCC 19542 assessed as growth inhibition at 0.3125 to 5 ug/mL by resazurin assay
Klebsiella pneumoniae [9] = test: Potency index, ratio of ciprofloxacin MIC to compound MIC for Klebsiella pneumoniae
Staphylococcus aureus [10] = test: Potency index, ratio of ciprofloxacin MIC to compound MIC for Staphylococcus aureus

Row | SMILES | MIC (Escherichia coli) [µg/mL] | MIC (Staphylococcus aureus [1]) [µg/mL] | MIC [2] [µg/mL] | MIC (Rhizopus) [µg/mL] | MIC (Aspergillus flavus) [µg/mL] | MIC [3] [µg/mL] | MIC (Klebsiella pneumoniae [4]) [µg/mL] | MIC (Candida albicans) [µg/mL] | growth inhibition (GI) [5] [%] | MIC [5] [µg/mL] | MIC [6] [µg/mL] | MIC [7] [µg/mL] | MIC [8] [µg/mL] | PI (Klebsiella pneumoniae [9]) | PI (Staphylococcus aureus [10])
1 | O=[N+]([O-])c1ccc(OCc2nc3cc(Br)ccc3n2S(=O)(=O)c2ccc(Cl)cc2Cl)cc1 | 4 (≈ 7.18 µM) | 8 (≈ 14.4 µM) | > 100 | 128 (≈ 230 µM) | 64 (≈ 115 µM) | 10 (≈ 17.9 µM) | 64 (≈ 115 µM) | 128 (≈ 230 µM) | <90 | > 100 | 5 (≈ 8.97 µM) | – | – | – | –
2 | Cc1c(F)cccc1S(=O)(=O)n1c(COc2ccc([N+](=O)[O-])cc2)nc2cc(Br)ccc21 | > 256 | 64 (≈ 123 µM) | 10 (≈ 19.2 µM) | 256 (≈ 492 µM) | 256 (≈ 492 µM) | > 100 | 128 (≈ 246 µM) | 128 (≈ 246 µM) | <90 | > 100 | 10 (≈ 19.2 µM) | 10 (≈ 19.2 µM) | 10 (≈ 19.2 µM) | – | –
3 | O=[N+]([O-])c1ccc(OCc2nc3cc(Br)ccc3n2S(=O)(=O)c2cc(Cl)ccc2Cl)cc1 | 4 (≈ 7.18 µM) | 8 (≈ 14.4 µM) | 10 (≈ 17.9 µM) | 16 (≈ 28.7 µM) | 32 (≈ 57.4 µM) | 10 (≈ 17.9 µM) | 8 (≈ 14.4 µM) | 64 (≈ 115 µM) | 90 | > 100 | 1.25 (≈ 2.24 µM) | – | 10 (≈ 17.9 µM) | 1 | –
4 | CO[C@H]1/C=C/O[C@@]2(C)Oc3c(C)c(O)c4c(O)c(c(/C=N/N5CCN(C)CC5)c(O)c4c3C2=O)NC(=O)/C(C)=C\C=C\[C@H](C)[C@H](O)[C@@H](C)[C@@H](O)[C@@H](C)[C@H](OC(C)=O)[C@@H]1C [RIFAMPIN] | – | – | 1.5 (≈ 1.82 µM) | – | – | 1.5 (≈ 1.82 µM) | – | – | 95 | 0.5 (≈ 0.608 µM) | 0.5 (≈ 0.608 µM) | 1.5 (≈ 1.82 µM) | 1.5 (≈ 1.82 µM) | – | –
5 | COc1ccc(OC)c(S(=O)(=O)n2c(COc3ccc([N+](=O)[O-])cc3)nc3ccc(Br)cc32)c1 | > 256 | 256 (≈ 467 µM) | > 100 | 128 (≈ 233 µM) | 256 (≈ 467 µM) | 10 (≈ 18.2 µM) | 128 (≈ 233 µM) | > 256 | <90 | 10 (≈ 18.2 µM) | 5 (≈ 9.12 µM) | 10 (≈ 18.2 µM) | – | – | –
6 | Cc1cccc(S(=O)(=O)n2c(COc3ccc([N+](=O)[O-])cc3)nc3ccc(Br)cc32)c1 | 128 (≈ 255 µM) | > 256 | > 100 | > 256 | > 256 | 10 (≈ 19.9 µM) | > 256 | 256 (≈ 510 µM) | <90 | > 100 | 5 (≈ 9.95 µM) | – | – | – | –
7 | O=[N+]([O-])c1ccc(OCc2nc3ccc(Br)cc3n2S(=O)(=O)c2cc(Cl)ccc2Cl)cc1 | 128 (≈ 230 µM) | 64 (≈ 115 µM) | 10 (≈ 17.9 µM) | 128 (≈ 230 µM) | 256 (≈ 459 µM) | > 100 | 128 (≈ 230 µM) | > 256 | 90 | 10 (≈ 17.9 µM) | 10 (≈ 17.9 µM) | – | 10 (≈ 17.9 µM) | – | –
8 | NNC(=O)c1ccncc1 [ISONIAZID] | – | – | 12.5 (≈ 91.1 µM) | – | – | 50 (≈ 365 µM) | – | – | 95 | 0.7 (≈ 5.1 µM) | 0.7 (≈ 5.1 µM) | 50 (≈ 365 µM) | 12.5 (≈ 91.1 µM) | – | –
9 | O=[N+]([O-])c1ccc(OCc2nc3cc(Br)ccc3n2S(=O)(=O)c2ccccc2[N+](=O)[O-])cc1 | 32 (≈ 60 µM) | 4 (≈ 7.5 µM) | 10 (≈ 18.8 µM) | 16 (≈ 30 µM) | 8 (≈ 15 µM) | 1 (≈ 1.88 µM) | 4 (≈ 7.5 µM) | 16 (≈ 30 µM) | 95 | 1 (≈ 1.88 µM) | 0.625 (≈ 1.17 µM) | 1.25 (≈ 2.34 µM) | 10 (≈ 18.8 µM) | 2 | 1
10 | O=[N+]([O-])c1ccc(OCc2nc3ccc(Br)cc3n2S(=O)(=O)c2cc(F)ccc2F)cc1 | 64 (≈ 122 µM) | 128 (≈ 244 µM) | 10 (≈ 19.1 µM) | 256 (≈ 488 µM) | 64 (≈ 122 µM) | 10 (≈ 19.1 µM) | > 256 | 128 (≈ 244 µM) | <90 | 10 (≈ 19.1 µM) | 2.5 (≈ 4.77 µM) | 10 (≈ 19.1 µM) | 10 (≈ 19.1 µM) | – | –
11 | N#Cc1cccc(S(=O)(=O)n2c(COc3ccc([N+](=O)[O-])cc3)nc3cc(Br)ccc32)c1 | 64 (≈ 125 µM) | 128 (≈ 249 µM) | > 100 | 128 (≈ 249 µM) | 128 (≈ 249 µM) | 10 (≈ 19.5 µM) | 128 (≈ 249 µM) | 64 (≈ 125 µM) | <90 | > 100 | 5 (≈ 9.74 µM) | – | – | – | –
12 | COc1ccc(S(=O)(=O)n2c(COc3ccc([N+](=O)[O-])cc3)nc3ccc(Br)cc32)c(OC)c1 | 256 (≈ 467 µM) | > 256 | > 100 | 128 (≈ 233 µM) | 256 (≈ 467 µM) | 10 (≈ 18.2 µM) | 128 (≈ 233 µM) | > 256 | <90 | 10 (≈ 18.2 µM) | 2.5 (≈ 4.56 µM) | 2.5 (≈ 4.56 µM) | – | – | –
